From patent publication US20210338694A1, “SOS1 ALLOSTERIC SITE TARGETING” (priority 2020, published 2021)

Assays:
Format in all cases: cell-based
[1] = tested on: Mononuclear bone marrow cells harvested from Kras G12D/+ mice; assay: CellTiter-Glo Luminescent Cell Viability Assay (growth inhibitory assay); conditions: Mus musculus, 48 h, 40 μM compound, two days of incubation, percentage of cells still alive at the end of the experiment, read-out: 40 μM (% Residual Activity)
Method: Mononuclear bone marrow cells harvested from Kras G12D/+ mice were tested for proliferation in a CellTiter-Glo® Luminescent Cell Viability Assay by Promega (Madison, Wis.) carried out by following the instructions provided by the manufacturer in the presence of 40 μM of 176 selected test compounds. […] The structures of these active compounds are shown in Table 1, along with the percentage of residual activity after two days of incubation with 40 μM of the compound. The residual activity is the percentage of cells that were still alive at the end of the experiment.

[2] = tested on: oncogenic Kras (G12C) transformed pancreatic MIA-PaCa-2 cells; assay: Cell growth of treated cells; conditions: Kras (G12C) MIA-PaCa-2 cells, FIGS. 3-5
Method: FIGS. 3-5 show data from experiments in which oncogenic Kras (G12C) transformed pancreatic MIA-PaCa-2 cells were treated with NSC-70220, and an experiment in which wild-type Kras expressing pancreatic BxPC-3 ductal cells were treated with NSC-70220.

[3] = tested on: ERK activation of oncogenic Kras (G12D) pancreatic cancer cells; assay: ERK activation by Western blotting of p-ERK, total ERK; conditions: Western blot, FIGS. 2A and 2B
[4] = tested on: Kras (G12D) transformed pancreatic cancer cells (4039); assay: Cell growth in tissue culture over a four-day period; conditions: 40 μM, Kras (G12D) cells 4039, FIG. 1
Method: Kras (G12D) transformed pancreatic cancer cells (4039) and wild-type Kras expressing pancreatic cancer cells (4037) were each exposed to 40 μM of NSC-70220. Cell growth in the tissue culture was monitored by assays over a four-day period.

`O=C(NC(=S)Nc1ccccc1O)c1ccc(-c2ccccc2)cc1` [Compound 920300] showed an activity at 40 µM [1] of 12%.

Work on `O=C(Nc1cc(Cl)ccc1O)c1ccc(Cl)c(C(=O)c2ccc(Cl)cc2)c1` [Compound 773778] yielded an activity at 40 µM [1] of 8%.

`O=C(C(=Cc1ccccc1[N+](=O)[O-])C(=O)c1ccccc1)c1ccccc1` [Compound 526470] gave an activity at 40 µM [1] of 15%.

`O=[N+]([O-])c1ccccc1/C=C/C=C1c2ccccc2-c2ccccc21` [NSC-70220] was tested, and the inhibition of growth [2] was “selectively inhibits growth”, the “inhibition of ERK activation” value [3] was “selectively inhibits ERK activation” and the activity at 40 µM [1] was 12 to 15%. For the same molecule, the “inhibition of cell growth” value [4] was “selectively inhibits”.

Molecule `Cc1cc(C)c2oc(-c3ccc(C)c(/N=C/C=C/c4ccc(Br)c([N+](=O)[O-])c4)c3)nc2c1` [Compound 312987] has an activity at 40 µM [1] of 8%.

For `O=C(N/N=C(/C=C/c1ccccc1)c1ccccc1)c1ccccc1O` [Compound 121366], the activity at 40 µM [1] was 12%.

`O=C(NNC(=O)c1ccccc1C(=O)O)c1ccccc1O` [Compound 473089] gave an activity at 40 µM [1] of 13%.

`O=C(N/N=C/C=C/c1ccc([N+](=O)[O-])o1)c1ccccc1O` [Compound 388883] gave an activity at 40 µM [1] of 1%.

`O=C(N/N=C/c1ccc(OCc2ccccc2)cc1)c1cccc(F)c1` [Compound 377247] was tested, and the activity at 40 µM [1] was 11%.

With `O=[N+]([O-])c1ccc(C=C(c2nc3ccccc3s2)c2nc3ccccc3s2)cc1` [Compound 408776] the activity at 40 µM [1] was 12%.

In the case of `O=C(/C=C/c1ccccc1[N+](=O)[O-])c1ccco1` [Compound 775432], the activity at 40 µM [1] is reported as 0%.

`COc1ccc(C=C2c3ccccc3-c3ccccc32)cc1` [Compound 262294] gave an activity at 40 µM [1] of 13%.

`C=CCc1ccc(/C=N/NC(=O)c2ccccc2O)cc1O` [Compound 290794] showed an activity at 40 µM [1] of 2%.

Molecule `O=C(NC(=S)NNC(=O)c1ccccc1O)c1ccc(-c2ccccc2)cc1` [Compound 390481] has an activity at 40 µM [1] of 10%.

Molecule `O=C(/C=C/c1ccc(/C=C/C(=O)c2ccc(O)cc2)cc1)c1ccc(O)cc1` [Compound 511128] has an activity at 40 µM [1] of 1%.

`O=C(NCc1ccccc1)/C(=C/C=C\c1ccccc1)NC(=O)c1ccccc1` [Compound 127987] was tested, and the activity at 40 µM [1] was 5%.

With `O=C(Nc1ccccc1C(=O)O)c1ccc([N+](=O)[O-])cc1` [Compound 114395] the activity at 40 µM [1] was 16%.

For `O=C(/C=C(\O)C(F)(F)/C(O)=C/C(=O)c1ccccc1)c1ccccc1` [Compound 387846], the activity at 40 µM [1] was 9%.

With `O=C(N/N=C/c1ccc(O)c(Br)c1)c1cc(Br)ccc1O` [Compound 394392] the activity at 40 µM [1] was 3%.

For `O=C(N/N=C/c1ccc2ccccc2c1)c1ccccc1O` [Compound 393689], the activity at 40 µM [1] was 11%.

For `O=C(N/N=C/c1ccc(O)c(O)c1)c1ccc(-c2ccccc2)cc1` [Compound 377089], the activity at 40 µM [1] was 6%.
